Literature values as cited in US7887847B2, “Nutritional supplement for treatment of ocular diseases” (priority 2004, dated 2011).

System: macular degeneration
Conditions: adults with the highest dietary intake compared with people with the lowest intake

Q: With `CC1=C[C@H](O)CC(C)(C)[C@H]1/C=C/C(C)=C/C=C/C(C)=C/C=C/C=C(C)/C=C/C=C(C)/C=C/C1=C(C)C[C@@H](O)CC1(C)C` [lutein, Lutein] as the compound, how does the “decreased risk of macular degeneration” value read?
A: 57%
